Data taken from ChEMBL document CHEMBL1201862, “PubChem BioAssay data set” (2004).
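Results reflect a 48-hour exposure of cells in 96-well plates to compound at five concentrations. Abbreviation: GI50, concentration required for 50% inhibition of growth.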 Calls of active or inactive are those of the source. No stated cut-off is given here; in the data, active = GI50 up to about 1.1 µM and inactive = higher.

Tests used:
Assay in all cases: NCI-60 cell line screen, 48 h
KM12 = tested on: KM12
NCI-H23 = tested on: NCI-H23
MOLT-4 = tested on: MOLT-4
A549 = tested on: A549
K562 = tested on: K562
SF-268 = tested on: SF-268
HCC 2998 = tested on: HCC 2998
RPMI-8226 = tested on: RPMI-8226
SK-MEL-28 = tested on: SK-MEL-28
DMS-273 = tested on: DMS-273
ACHN = tested on: ACHN
IGROV-1 = tested on: IGROV-1
SNB-19 = tested on: SNB-19
Malme-3M = tested on: Malme-3M
SF-295 = tested on: SF-295
SW-620 = tested on: SW-620
HCT-116 = tested on: HCT-116
UO-31 = tested on: UO-31
HL-60 = tested on: HL-60
HOP-92 = tested on: HOP-92
UACC-257 = tested on: UACC-257
786-0 = tested on: 786-0
HCT-15 = tested on: HCT-15
SNB-78 = tested on: SNB-78
OVCAR-3 = tested on: OVCAR-3
LOX IMVI = tested on: LOX IMVI
KM-20L2 = tested on: KM-20L2
RXF 631 = tested on: RXF 631
M19-MEL = tested on: M19-MEL
DMS-114 = tested on: DMS-114
A498 = tested on: A498
EKVX = tested on: EKVX
U-251 = tested on: U-251
COLO 205 = tested on: COLO 205
HT-29 = tested on: HT-29
M14 = tested on: M14
SNB-75 = tested on: SNB-75
HOP-62 = tested on: HOP-62
SN12C = tested on: SN12C
UACC-62 = tested on: UACC-62
OVCAR-8 = tested on: OVCAR-8
SF-539 = tested on: SF-539
CAKI-1 = tested on: CAKI-1
TK-10 = tested on: TK-10
NCI-H522 = tested on: NCI-H522
OVCAR-5 = tested on: OVCAR-5
LXFL 529 = tested on: LXFL 529
DLD-1 = tested on: DLD-1
HOP-18 = tested on: HOP-18
NCI-H460 = tested on: NCI-H460
NCI-H226 = tested on: NCI-H226
RXF 393 = tested on: RXF 393
SK-MEL-5 = tested on: SK-MEL-5
OVCAR-4 = tested on: OVCAR-4
SK-OV-3 = tested on: SK-OV-3
SK-MEL-2 = tested on: SK-MEL-2
SR = tested on: SR
XF498 = tested on: XF498
CCRF-CEM = tested on: CCRF-CEM

Question: What does the source list for O=C(CC(=O)C1CCOC1=O)C(=O)Nc1cccc(Cl)c1 (configuration not stated)?
Answer: GI50 (KM12): > 100 µM (inactive); GI50 (NCI-H23): > 100 µM (inactive); GI50 (MOLT-4): > 100 µM (inactive); GI50 (A549): > 100 µM (inactive); GI50 (K562): > 100 µM (inactive); GI50 (SF-268): > 100 µM (inactive); GI50 (HCC 2998): > 100 µM (inactive); GI50 (RPMI-8226): > 100 µM (inactive); GI50 (SK-MEL-28): > 100 µM (inactive); GI50 (DMS-273): > 100 µM (inactive); GI50 (ACHN): > 100 µM (inactive); GI50 (IGROV-1): > 100 µM (inactive); GI50 (SNB-19): > 100 µM (inactive); GI50 (Malme-3M): > 100 µM (inactive); GI50 (SF-295): > 100 µM (inactive); GI50 (SW-620): > 100 µM (inactive); GI50 (HCT-116): > 100 µM (inactive); GI50 (UO-31): > 100 µM (inactive); GI50 (HL-60): > 100 µM (inactive); GI50 (HOP-92): > 100 µM (inactive); GI50 (UACC-257): > 100 µM (inactive); GI50 (786-0): > 100 µM (inactive); GI50 (HCT-15): > 100 µM; GI50 (SNB-78): > 100 µM (inactive); GI50 (OVCAR-3): > 100 µM (inactive); GI50 (LOX IMVI): > 100 µM (inactive); GI50 (KM-20L2): > 100 µM (inactive); GI50 (RXF 631): > 100 µM (inactive); GI50 (M19-MEL): > 100 µM (inactive); GI50 (DMS-114): > 100 µM (inactive); GI50 (A498): > 100 µM (inactive); GI50 (EKVX): > 100 µM (inactive); GI50 (U-251): > 100 µM (inactive); GI50 (COLO 205): > 100 µM (inactive); GI50 (HT-29): > 100 µM (inactive); GI50 (M14): > 100 µM (inactive); GI50 (SNB-75): > 100 µM (inactive); GI50 (HOP-62): > 100 µM (inactive); GI50 (SN12C): > 100 µM (inactive); GI50 (UACC-62): > 100 µM (inactive); GI50 (OVCAR-8): > 100 µM (inactive); GI50 (SF-539): > 100 µM (inactive); GI50 (CAKI-1): > 100 µM (inactive); GI50 (TK-10): > 100 µM (inactive); GI50 (NCI-H522): > 100 µM (inactive); GI50 (OVCAR-5): > 100 µM (inactive); GI50 (LXFL 529): > 100 µM (inactive); GI50 (DLD-1): > 100 µM (inactive); GI50 (HOP-18): > 100 µM (inactive); GI50 (NCI-H460): > 100 µM (inactive); GI50 (NCI-H226): > 100 µM (inactive); GI50 (RXF 393): > 100 µM (inactive); GI50 (SK-MEL-5): > 100 µM (inactive); GI50 (OVCAR-4): > 100 µM (inactive); GI50 (SK-OV-3): > 100 µM (inactive); GI50 (SK-MEL-2): > 100 µM (inactive)

Question: How did the GI50 (KM12) turn out when [N-]=[N+]=Nc1c(Br)c(=O)[nH]c(=O)n1COCCO was run?
Answer: > 100 µM (inactive)

Question: What about the GI50 (NCI-H23) of the same compound?
Answer: > 100 µM (inactive)

Question: And the GI50 (MOLT-4)?
Answer: > 100 µM (inactive)

Question: And the GI50 (A549)?
Answer: > 100 µM (inactive)

Question: What about the GI50 (K562) of the same compound?
Answer: > 100 µM (inactive)

Question: What about the GI50 (SF-268) of the same compound?
Answer: > 100 µM (inactive)

Question: And the GI50 (HCC 2998)?
Answer: > 100 µM (inactive)

Question: And the GI50 (SK-MEL-28)?
Answer: > 100 µM (inactive)

Question: What about the GI50 (DMS-273) of the same compound?
Answer: > 100 µM (inactive)

Question: What about the GI50 (SR) of the same compound?
Answer: > 100 µM (inactive)

Question: What about the GI50 (ACHN) of the same compound?
Answer: > 100 µM (inactive)

Question: And the GI50 (IGROV-1)?
Answer: > 100 µM (inactive)

Question: What about the GI50 (SNB-19) of the same compound?
Answer: > 100 µM (inactive)

Question: And the GI50 (Malme-3M)?
Answer: > 100 µM (inactive)

Question: And the GI50 (SF-295)?
Answer: > 100 µM (inactive)

Question: What about the GI50 (XF498) of the same compound?
Answer: > 100 µM (inactive)

Question: What about the GI50 (SW-620) of the same compound?
Answer: > 100 µM (inactive)

Question: And the GI50 (HCT-116)?
Answer: > 100 µM (inactive)

Question: And the GI50 (UO-31)?
Answer: > 100 µM (inactive)

Question: And the GI50 (HL-60)?
Answer: > 100 µM (inactive)

Question: What about the GI50 (HOP-92) of the same compound?
Answer: > 100 µM (inactive)

Question: And the GI50 (UACC-257)?
Answer: > 100 µM (inactive)

Question: And the GI50 (786-0)?
Answer: > 100 µM (inactive)

Question: And the GI50 (SNB-78)?
Answer: > 100 µM (inactive)

Question: What about the GI50 (OVCAR-3) of the same compound?
Answer: > 100 µM (inactive)

Question: What about the GI50 (LOX IMVI) of the same compound?
Answer: > 100 µM (inactive)

Question: What about the GI50 (RXF 631) of the same compound?
Answer: > 100 µM (inactive)

Question: What about the GI50 (M19-MEL) of the same compound?
Answer: > 100 µM (inactive)

Question: What about the GI50 (DMS-114) of the same compound?
Answer: > 100 µM (inactive)

Question: What about the GI50 (CCRF-CEM) of the same compound?
Answer: 63.4 µM (inactive)

Question: What about the GI50 (U-251) of the same compound?
Answer: > 100 µM (inactive)

Question: And the GI50 (COLO 205)?
Answer: > 100 µM (inactive)

Question: What about the GI50 (HT-29) of the same compound?
Answer: > 100 µM (inactive)

Question: And the GI50 (M14)?
Answer: > 100 µM (inactive)

Question: And the GI50 (SNB-75)?
Answer: 86.1 µM (inactive)

Question: And the GI50 (HOP-62)?
Answer: > 100 µM (inactive)

Question: What about the GI50 (SN12C) of the same compound?
Answer: > 100 µM (inactive)

Question: What about the GI50 (UACC-62) of the same compound?
Answer: > 100 µM (inactive)

Question: And the GI50 (OVCAR-8)?
Answer: > 100 µM (inactive)

Question: What about the GI50 (SF-539) of the same compound?
Answer: > 100 µM (inactive)

Question: And the GI50 (CAKI-1)?
Answer: > 100 µM (inactive)

Question: What about the GI50 (TK-10) of the same compound?
Answer: > 100 µM (inactive)

Question: What about the GI50 (NCI-H522) of the same compound?
Answer: 32.2 µM (inactive)

Question: What about the GI50 (OVCAR-5) of the same compound?
Answer: > 100 µM (inactive)

Question: What about the GI50 (LXFL 529) of the same compound?
Answer: > 100 µM (inactive)

Question: What about the GI50 (DLD-1) of the same compound?
Answer: > 100 µM (inactive)

Question: What about the GI50 (HOP-18) of the same compound?
Answer: > 100 µM (inactive)

Question: And the GI50 (NCI-H460)?
Answer: > 100 µM (inactive)

Question: And the GI50 (RXF 393)?
Answer: > 100 µM (inactive)

Question: What about the GI50 (SK-MEL-5) of the same compound?
Answer: > 100 µM (inactive)

Question: And the GI50 (OVCAR-4)?
Answer: > 100 µM (inactive)
